Test results: patent US12227895B2, “Odor reduction and bacterial control on a textile material” (Microban Products Company, priority 2019, dated 2025)
Like-named read-outs stand apart in the source and are kept apart here.

Assays:
[1] = system: bacteria; details: for efficacy after home launderings: after 25 home launderings (FIG. 3); for efficacy (AATCC TM100): salts only, zero home launderings, liquor pH not lowered (FIG. 1)
[2] = system: Kp; details: Polyester Fabric, Mathis JFO Exhaust
Procedure: High dye load samples are the most difficult to process using exhaustion dye techniques. A series of tests were run using PET (polyester) and polyspandex fabrics. In this test series the materials were tested in two different laboratories using container-style lab exhaust equipment. Alongside the treated samples, untreated fabrics were run for comparison.
The fabrics were tested as-made and after 25 home launderings (25 HL). Each home laundering was performed in a commercial front-load washing machine per AATCC Monograph M6 using Tide HE detergent.
Trials have been performed in a small Thiele exhaustion pilot unit, as well as in Mathis JFO pilot scale equipment, both of which use jets to forcibly impregnate the textile with the exhaust liquor.
Reductive Clears—Method A is 1% Na Hydrosulfite whereas Method B is 0.3% NaOH, 0.4% Na Hydrosulfite. “owg” is “on weight of goods”.

Structure (SMILES): O=C(O)CC(O)(CC(=O)O)C(=O)O [Citric acid, citric acid]
- efficacy after home launderings [1]: not able to maintain efficacy

Structure (SMILES): C/C=C/C=C/C(=O)[O-].[K+] [potassium sorbate, reference compound]
- efficacy (AATCC TM100) [1]: relatively low levels of efficacy

Structure (SMILES): O=C([O-])c1ccccc1.[Na+] [sodium benzoate]
- Percent reduction ([2]; 0 HL, sodium benzoate acidified with citric acid to pH<3.6, run as Example 4): 99.50%
- Percent reduction ([2]; 25 HL, sodium benzoate acidified with citric acid to pH<3.6): 99.50%
- efficacy (AATCC TM100) [1]: relatively low levels of efficacy

Structure (SMILES): C/C=C/C=C/C(=O)O [sorbic acid]
- efficacy after home launderings [1]: able to maintain efficacy following multiple washing cycles
- efficacy after a reductive clear ([1]; exhausted on polyester fabric, 0 HL (FIG. 4)): demonstrate efficacy after the reductive clear

Structure (SMILES): O=C([O-])CC(O)(CC(=O)[O-])C(=O)[O-].[Na+].[Na+].[Na+] [trisodium citrate, reference compound]
- efficacy (AATCC TM100) [1]: relatively low levels of efficacy
